According to patent publication US20250388543A1, “HETEROARYL COMPOUNDS FOR THE TREATMENT OF PAIN” (VERTEX PHARMACEUTICALS INCORPORATED, priority 2022, published 2025):

biological target: human NaV 1.8 (Homo sapiens, UniProt Q9Y5Y9); assay: E-VIPR Assay Detecting and Measuring NaV Inhibition Properties; assay type: cell-based; settings: HEK cells expressing a truncated form of human NaV 1.8 with full channel activity; electrical stimulation, membrane-potential FRET dyes; 30 minutes compound incubation; read-out: measured IC50 value in the E-VIPR Assay
Description: E-VIPR Assay Detecting and Measuring NaV Inhibition Properties
Sodium ion channels are voltage-dependent proteins that can be activated by inducing membrane voltage changes by applying electric fields. The electrical stimulation instrument and methods of use, referred to as E-VIPR, are described in International Publication No. WO 2002/008748 A3 and C.-J. Huang et al. Characterization of voltage-gated sodium channel blockers by electrical stimulation and fluorescence detection of membrane potential, 24 Nature Biotech. 439-46 (2006), both of which are incorporated by reference in their entirety. The instrument comprises a microtiter plate handler, an optical system for exciting the coumarin dye while simultaneously recording the coumarin and oxonol emissions, a waveform generator, a current- or voltage-controlled amplifier, and parallel electrode pairs that are inserted into assay plate wells. Under integrated computer control, this instrument passes user-programmed electrical stimulus protocols to cells within the wells of the microtiter plate.
16-20 hours prior to running the assay on E-VIPR, HEK cells expressing a truncated form of human NaV 1.8 with full channel activity were seeded into microtiter 384-well plates, pre-coated with matrigel, at a density of 25,000 cells per well. 2.5-5% KIR2.1 BacMam virus was added to the final cell suspension before seeding into cell plates. HEK cells were grown in Dulbecco's Modified Eagle's Medium (DMEM) supplemented with 10% FBS (Fetal Bovine Serum, qualified; Sigma #F4135), 1% NEAA (Non-Essential Amino Acids, Gibco #11140), 1% HEPES (Gibco #15630), 1% Pen-Strep (Penicillin-Streptomycin; Gibco #15140) and 5 μg/ml Blasticidin (Gibco #R210-01). Cells were expanded in 5-layer CellSTACK culture chambers or cell culture flasks with vented caps, with 90-95% humidity and 5% CO2.
Reagents and Stock Solutions:
100 mg/mL Pluronic F-127 (Sigma #P2443), in dry DMSO
Compound Plates: Corning 384-well Polypropylene Round Bottom #3656
Cell Plates: 384-well tissue culture treated plates (Greiner #781091-2B)
2.5-5% KIR 2.1 Bacmam virus (produced in-house), prepared as described in Section 3.3 of J. A. Fornwald et al., Gene Expression in Mammalian Cells Using BacMam, a Modified Baculovirus System, 1350 Methods in Molecular Biology 95-116 (2016), the entire contents of which are incorporated by reference. The concentration used can be dependent on viral titer of each batch.
5 mM DiSBAC6(3), a voltage sensitive oxonol acceptor (CAS number 169211-44-3; 5-[3-(1,3-dihexylhexahydro-4,6-dioxo-2-thioxo-5-pyrimidinyl)-2-propen-1-ylidene]-1,3-dihexyldihydro-2-thioxo-4,6(1H,5H)-pyrimidinedione), in dry DMSO. The preparation of DiSBAC6(3) is analogous to that of DiSBAC4(3) as described in Voltage Sensing by Fluorescence Resonance Energy Transfer in Single Cells, Gonzalez, J. E. and Tsien, R. Y. (1995) Biophys. J. 69, 1272-1280.
5 mM CC2-DMPE, a commercially available membrane-bound coumarin phospholipid FRET donor (ThermoFisher Scientific catalog number K1017, CAS number 393782-57-5; tetradecanoic acid, 1,1′-[(1R)-1-[8-(6-chloro-7-hydroxy-2-oxo-2H-1-benzopyran-3-yl)-3-hydroxy-3-oxido-8-oxo-2,4-dioxa-7-aza-3-phosphaoct-1-yl]-1,2-ethanediyl]ester) was prepared in dry DMSO. See also, Improved indicators of cell membrane potential that use fluorescence resonance energy transfer, Gonzalez, J. E. and Tsien, R. Y. (1997) Chem. Biol. 4, 269-277.
Voltage Assay Background Suppression Compound (VABSC-1) is prepared in H2O (89-363 mM, range used to maintain solubility)
Human Serum (HS, Millipore #S1P1-01KL, or Sigma SLBR5469V and SLBR5470V as a 50%/50% mixture, for 25% assay final concentration)
Sodium Chloride 160 mM (9.35 g/L), Potassium Chloride, 4.5 mM (0.335 g/L), Glucose 10 mM (1.8 g/L), Magnesium Chloride (Anhydrous) 1 mM (0.095 g/L), Calcium Chloride 2 mM (0.222 g/L), HEPES 10 mM (2.38 g/L) in water. […]

Chain of human NaV 1.8 (Q9Y5Y9 126-1722 limits assumed): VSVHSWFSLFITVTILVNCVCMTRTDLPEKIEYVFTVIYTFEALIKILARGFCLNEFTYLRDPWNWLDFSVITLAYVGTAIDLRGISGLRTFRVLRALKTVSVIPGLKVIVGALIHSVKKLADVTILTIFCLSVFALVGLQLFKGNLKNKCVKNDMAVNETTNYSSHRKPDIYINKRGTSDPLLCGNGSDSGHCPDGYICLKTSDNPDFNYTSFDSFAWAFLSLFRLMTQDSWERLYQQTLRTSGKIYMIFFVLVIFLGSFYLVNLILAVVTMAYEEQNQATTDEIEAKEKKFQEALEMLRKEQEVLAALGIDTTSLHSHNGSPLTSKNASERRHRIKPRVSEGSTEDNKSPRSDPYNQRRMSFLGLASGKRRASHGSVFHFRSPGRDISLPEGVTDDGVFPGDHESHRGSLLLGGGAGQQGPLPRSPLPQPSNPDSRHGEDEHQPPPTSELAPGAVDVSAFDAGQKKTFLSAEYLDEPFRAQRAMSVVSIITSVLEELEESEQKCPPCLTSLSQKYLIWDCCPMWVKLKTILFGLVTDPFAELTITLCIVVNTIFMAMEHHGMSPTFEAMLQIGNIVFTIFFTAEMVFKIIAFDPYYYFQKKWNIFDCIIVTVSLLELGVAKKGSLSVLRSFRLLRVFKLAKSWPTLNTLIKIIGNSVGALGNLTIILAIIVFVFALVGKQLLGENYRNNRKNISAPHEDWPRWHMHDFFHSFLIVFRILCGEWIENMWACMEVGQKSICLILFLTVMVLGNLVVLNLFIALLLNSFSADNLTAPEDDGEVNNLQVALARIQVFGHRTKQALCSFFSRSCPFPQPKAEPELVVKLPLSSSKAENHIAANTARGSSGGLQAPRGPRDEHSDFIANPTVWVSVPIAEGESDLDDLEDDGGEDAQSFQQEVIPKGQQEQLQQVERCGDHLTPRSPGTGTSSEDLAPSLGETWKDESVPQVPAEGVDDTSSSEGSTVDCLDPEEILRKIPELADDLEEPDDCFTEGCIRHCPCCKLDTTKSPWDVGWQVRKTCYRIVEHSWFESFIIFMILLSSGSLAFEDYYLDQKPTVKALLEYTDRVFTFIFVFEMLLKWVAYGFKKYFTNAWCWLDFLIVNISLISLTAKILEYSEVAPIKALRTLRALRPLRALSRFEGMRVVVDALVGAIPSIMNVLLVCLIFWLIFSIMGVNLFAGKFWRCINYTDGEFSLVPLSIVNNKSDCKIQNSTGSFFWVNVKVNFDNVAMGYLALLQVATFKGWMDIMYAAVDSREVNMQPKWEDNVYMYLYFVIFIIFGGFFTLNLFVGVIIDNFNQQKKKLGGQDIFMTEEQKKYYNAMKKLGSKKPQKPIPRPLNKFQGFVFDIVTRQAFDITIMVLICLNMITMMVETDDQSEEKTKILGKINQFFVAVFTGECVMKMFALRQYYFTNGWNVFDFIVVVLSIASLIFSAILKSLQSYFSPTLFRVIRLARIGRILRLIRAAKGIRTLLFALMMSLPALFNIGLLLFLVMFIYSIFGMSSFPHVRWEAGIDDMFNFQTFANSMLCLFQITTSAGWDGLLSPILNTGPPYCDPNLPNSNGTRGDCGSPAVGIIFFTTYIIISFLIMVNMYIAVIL

First: Cc1cc(=O)cc(-c2ccc(C(F)(F)F)cc2C2CCC(F)(F)CC2)[nH]1 [Compound 325, 2-[2-(4,4-difluorocyclohexyl)-4-(trifluoromethyl)phenyl]-6-methyl-1H-pyridin-4-one]
Second: Cc1cc(=O)cc(-c2ccc(C(F)(F)F)cc2C2=CCC(F)(F)CC2)[nH]1 [Compound 324, 2-[2-(4,4-difluorocyclohexen-1-yl)-4-(trifluoromethyl)phenyl]-6-methyl-1H-pyridin-4-one]
The IC50 of the first is lower: 0.5 to 2 µM for the first, ≥ 5 µM for the second.

Compared with `CCOC(=O)c1c(-c2cc3ccccc3nc2N2CCCCC2)[nH]c(C)c(OC)c1=O` [Compound 250, ethyl 5-methoxy-6-methyl-4-oxo-2-[2-(1-piperidyl)-3-quinolyl]-1H-pyridine-3-carboxylate], `CCOC(=O)c1c(-c2cc3ccccc3nc2N2CCCOCC2)[nH]c(C)c(OC)c1=O` [Compound 227, ethyl 5-methoxy-6-methyl-2-[2-(1,4-oxazepan-4-yl)-3-quinolyl]-4-oxo-1H-pyridine-3-carboxylate] is higher in IC50: 0.5 to 2 µM for the first, 2 to 5 µM for the second.

`CCOC(=O)c1c(-c2cc3ccccc3nc2N2CCOCC2)[nH]c(C)c(OC)c1=O` [Compound 249, ethyl 5-methoxy-6-methyl-2-(2-morpholino-3-quinolyl)-4-oxo-1H-pyridine-3-carboxylate] and `CCOC(=O)c1c(-c2cc3ccccc3nc2N2CCC(OC)CC2)[nH]c(C)c(OC)c1=O` [Compound 229, ethyl 5-methoxy-2-[2-(4-methoxy-1-piperidyl)-3-quinolyl]-6-methyl-4-oxo-1H-pyridine-3-carboxylate] cannot be ordered by IC50: ≥ 5 µM for the first, 2 to 5 µM for the second.

`Cc1c(Oc2ncc(C(F)(F)F)c(C)c2-c2cc(=O)c(C(N)=O)c[nH]2)ccc(F)c1F` [Compound 310, 6-[2-(3,4-difluoro-2-methyl-phenoxy)-4-methyl-5-(trifluoromethyl)-3-pyridyl]-4-oxo-1H-pyridine-3-carboxamide] and `Cc1[nH]c(-c2c(Oc3ccc(F)c(F)c3C)ncc(C(F)(F)F)c2C)cc(=O)c1-c1cn(C)c(C)n1` [Compound 162, 6-[2-(3,4-difluoro-2-methyl-phenoxy)-4-methyl-5-(trifluoromethyl)-3-pyridyl]-3-(1,2-dimethylimidazol-4-yl)-2-methyl-1H-pyridin-4-one] fall in the same range of IC50: 0.5 to 2 µM for the first, 0.5 to 2 µM for the second.

`CCOC(=O)c1c(C)[nH]c(-c2c(Oc3ccc(F)c(F)c3C)ncc(C(F)(F)F)c2C)c(C)c1=O` [Compound 43, ethyl 6-[2-(3,4-difluoro-2-methyl-phenoxy)-4-methyl-5-(trifluoromethyl)-3-pyridyl]-2,5-dimethyl-4-oxo-1H-pyridine-3-carboxylate] and `COc1c(Oc2cnc(C(F)(F)F)cc2-c2[nH]c(C)c(C)c(=O)c2C(=O)O)ccc(F)c1F` [Compound 280, 2-[5-(3,4-difluoro-2-methoxy-phenoxy)-2-(trifluoromethyl)-4-pyridyl]-5,6-dimethyl-4-oxo-1H-pyridine-3-carboxylic acid] fall in the same range of IC50: 0.5 to 2 µM for the first, 0.5 to 2 µM for the second.

First: COc1cc(F)ccc1Oc1cc(C(C)(C)C)cc(C)c1-c1cc(=O)c(C(=O)N(C)C)c(C)[nH]1 [Compound 289, 6-[4-tert-butyl-2-(4-fluoro-2-methoxy-phenoxy)-6-methyl-phenyl]-N,N,2-trimethyl-4-oxo-1H-pyridine-3-carboxamide]
Second: Cc1cc(C(C)(C)C)cc(Oc2ccc(F)cc2O)c1-c1cc(=O)cc[nH]1 [Compound 160, 2-[4-tert-butyl-2-(4-fluoro-2-hydroxy-phenoxy)-6-methyl-phenyl]-1H-pyridin-4-one]
The IC50 of the first is lower: 0.5 to 2 µM for the first, ≥ 5 µM for the second. The first is the more potent here.

`Cc1cc(=O)cc(-c2ccccc2C2CC2)[nH]1` [Compound 148, 2-(2-cyclopropylphenyl)-6-methyl-1H-pyridin-4-one] and `Cc1cc(=O)cc(-c2ccccc2OCC2CC2)[nH]1` [Compound 146, 2-[2-(cyclopropylmethoxy)phenyl]-6-methyl-1H-pyridin-4-one] cannot be ordered by IC50: ≥ 5 µM for the first, ≥ 5 µM for the second.

`Cc1cc(=O)cc(-c2cnc(C(F)(F)F)nc2C2CCC(F)(F)CC2)[nH]1` [Compound 109, 2-[4-(4,4-difluorocyclohexyl)-2-(trifluoromethyl)pyrimidin-5-yl]-6-methyl-1H-pyridin-4-one] and `Cc1cc(=O)cc(-c2c(C(F)(F)F)ccnc2N2CCC(F)(F)CC2)[nH]1` [Compound 319, 2-[2-(4,4-difluoro-1-piperidyl)-4-(trifluoromethyl)-3-pyridyl]-6-methyl-1H-pyridin-4-one] cannot be ordered by IC50: 2 to 5 µM for the first, ≥ 5 µM for the second.

`CCOC(=O)c1c(-c2cc3ccccc3nc2N2CCC[C@H](OC)C2)[nH]c(C)c(OC)c1=O` [Compound 231, ethyl 5-methoxy-2-[2-[(3S)-3-methoxy-1-piperidyl]-3-quinolyl]-6-methyl-4-oxo-1H-pyridine-3-carboxylate] and `CCOC(=O)c1c(-c2cc3ccccc3nc2N2CC[C@H](OC)C2)[nH]c(C)c(OC)c1=O` [Compound 244, ethyl 5-methoxy-2-[2-[(3S)-3-methoxypyrrolidin-1-yl]-3-quinolyl]-6-methyl-4-oxo-1H-pyridine-3-carboxylate] fall in the same range of IC50: 2 to 5 µM for the first, 2 to 5 µM for the second.

`Cc1cc(=O)cc(-c2c(C(F)(F)F)ccnc2N2CCCC(F)(F)CC2)[nH]1` [Compound 318, 2-[2-(4,4-difluoroazepan-1-yl)-4-(trifluoromethyl)-3-pyridyl]-6-methyl-1H-pyridin-4-one] and `Cc1cc(=O)cc(-c2cc(C(F)(F)F)ncc2C2CCC(C(F)(F)F)CC2)[nH]1` (stereo not drawn) [Compound 321, 2-methyl-6-[2-(trifluoromethyl)-5-[4-(trifluoromethyl)cyclohexyl]-4-pyridyl]-1H-pyridin-4-one] cannot be ordered by IC50: ≥ 5 µM for the first, ≥ 5 µM for the second.

`Cc1cc(=O)cc(-c2cc3ccccc3nc2OCc2ccccc2)[nH]1` [Compound 105, 2-(2-benzyloxy-3-quinolyl)-6-methyl-1H-pyridin-4-one] and `Cc1cc(=O)cc(-c2ccc(C(C)(C)C)cc2OCC2CC2(F)F)[nH]1` (stereo not drawn) [Compound 136] cannot be ordered by IC50: ≥ 5 µM for the first, 2 to 5 µM for the second.

First: Cc1[nH]c(-c2cc(C(F)(F)F)ncc2C2CCC(C(F)(F)F)CC2)cc(=O)c1C (stereo not drawn) [Compound 142, 2,3-dimethyl-6-[2-(trifluoromethyl)-5-[4-(trifluoromethyl)cyclohexyl]-4-pyridyl]-1H-pyridin-4-one]
Second: COc1c(Oc2cc(C(F)(F)F)c(F)cc2-c2cc(=O)nc(C)[nH]2)ccc(F)c1F [Compound 55, 6-[2-(3,4-difluoro-2-methoxy-phenoxy)-5-fluoro-4-(trifluoromethyl)phenyl]-2-methyl-1H-pyrimidin-4-one]
The IC50 of the first is lower: 0.5 to 2 µM for the first, ≥ 5 µM for the second.

First: CCOC(=O)c1c(-c2cc3ccccc3nc2N2CCC(C)(C)C2)[nH]c(C)c(OC)c1=O [Compound 238, ethyl 2-[2-(3,3-dimethylpyrrolidin-1-yl)-3-quinolyl]-5-methoxy-6-methyl-4-oxo-1H-pyridine-3-carboxylate]
Second: CCOC(=O)c1c(-c2cc3ccccc3nc2N2CCC(F)(F)C2)[nH]c(C)c(OC)c1=O [Compound 242, ethyl 2-[2-(3,3-difluoropyrrolidin-1-yl)-3-quinolyl]-5-methoxy-6-methyl-4-oxo-1H-pyridine-3-carboxylate]
The IC50 of the first is lower: 0.5 to 2 µM for the first, 2 to 5 µM for the second. The first is the more potent here.

With `CCOC(=O)c1c(-c2cc3ccccc3nc2N2C[C@@H]3CCO[C@@H]3C2)[nH]c(C)c(OC)c1=O` [Compound 228, ethyl 2-[2-[(3aS,6aS)-2,3,3a,4,6,6a-hexahydrofuro[2,3-c]pyrrol-5-yl]-3-quinolyl]-5-methoxy-6-methyl-4-oxo-1H-pyridine-3-carboxylate] the IC50 was ≥ 5 µM.
